Results published in ChEMBL document CHEMBL4007467, “Effects of 6-paradol, an unsaturated ketone from gingers, on cytochrome P450-mediated drug metabolism” (Bioorg Med Chem Lett, 2017).

How the values were obtained:
Assay type in all cases: ADME
[1] = target: T1, CYP2C9 (Homo sapiens, UniProt P11712); test: Inhibition of CYP2C9 in human liver microsomes assessed as enzyme-mediated metabolite formation at 30 uM using diclofenac as substrate preincubated for 20 mins followed by substrate addition measured after 30 mins in presence of NADPH by LC-MS/MS analysis relative to control; set-up: scale not given: the % may be the effect or the level left; conditions: probe diclofenac, read-out: Activity
T1 sequence (P11712 whole entry): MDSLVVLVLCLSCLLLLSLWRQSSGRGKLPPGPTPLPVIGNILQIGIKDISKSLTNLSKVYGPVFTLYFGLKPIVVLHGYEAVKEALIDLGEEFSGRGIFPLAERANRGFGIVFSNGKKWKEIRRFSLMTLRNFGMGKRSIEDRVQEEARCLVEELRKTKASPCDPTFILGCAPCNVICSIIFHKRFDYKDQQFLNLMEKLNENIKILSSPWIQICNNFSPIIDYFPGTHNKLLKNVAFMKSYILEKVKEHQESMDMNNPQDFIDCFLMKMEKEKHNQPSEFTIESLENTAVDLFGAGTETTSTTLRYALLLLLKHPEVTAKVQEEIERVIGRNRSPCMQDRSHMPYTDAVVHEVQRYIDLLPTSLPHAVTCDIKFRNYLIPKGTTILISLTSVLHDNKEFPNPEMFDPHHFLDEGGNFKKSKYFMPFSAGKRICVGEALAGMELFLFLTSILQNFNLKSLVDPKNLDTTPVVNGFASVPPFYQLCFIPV

[2] = target: T2, CYP3A4 (Homo sapiens, UniProt P08684); test: Inhibition of CYP3A4 in human liver microsomes assessed as enzyme-mediated metabolite formation at 0.1 uM using midazolam as substrate incubated for 5 mins followed by NADPH addition measured after 30 mins by LC-MS/MS analysis relative to control; set-up: scale not given: the % may be the effect or the level left; conditions: probe midazolam, read-out: Activity
T2 sequence (P08684 whole entry): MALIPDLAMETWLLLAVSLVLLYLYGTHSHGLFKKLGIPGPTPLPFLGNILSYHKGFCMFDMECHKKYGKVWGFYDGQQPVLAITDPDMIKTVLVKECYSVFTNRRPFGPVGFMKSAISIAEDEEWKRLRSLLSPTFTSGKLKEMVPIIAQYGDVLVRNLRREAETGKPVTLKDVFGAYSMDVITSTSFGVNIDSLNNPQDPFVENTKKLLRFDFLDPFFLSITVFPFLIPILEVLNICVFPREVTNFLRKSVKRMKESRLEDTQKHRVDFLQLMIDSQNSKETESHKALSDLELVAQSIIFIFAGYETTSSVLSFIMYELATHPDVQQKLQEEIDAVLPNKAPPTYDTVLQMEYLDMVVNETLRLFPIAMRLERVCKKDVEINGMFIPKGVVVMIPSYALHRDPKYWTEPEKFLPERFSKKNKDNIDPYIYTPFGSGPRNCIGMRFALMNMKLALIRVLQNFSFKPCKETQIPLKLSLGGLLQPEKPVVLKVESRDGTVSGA

[3] = target: T3, CYP1A2 (Homo sapiens, UniProt P05177); test: Inhibition of CYP1A2 in human liver microsomes assessed as enzyme-mediated metabolite formation at 3 uM using phenacetin as substrate incubated for 5 mins followed by NADPH addition measured after 30 mins by LC-MS/MS analysis relative to control; set-up: scale not given: the % may be the effect or the level left; conditions: probe phenacetin, read-out: Activity
T3 sequence (P05177 whole entry): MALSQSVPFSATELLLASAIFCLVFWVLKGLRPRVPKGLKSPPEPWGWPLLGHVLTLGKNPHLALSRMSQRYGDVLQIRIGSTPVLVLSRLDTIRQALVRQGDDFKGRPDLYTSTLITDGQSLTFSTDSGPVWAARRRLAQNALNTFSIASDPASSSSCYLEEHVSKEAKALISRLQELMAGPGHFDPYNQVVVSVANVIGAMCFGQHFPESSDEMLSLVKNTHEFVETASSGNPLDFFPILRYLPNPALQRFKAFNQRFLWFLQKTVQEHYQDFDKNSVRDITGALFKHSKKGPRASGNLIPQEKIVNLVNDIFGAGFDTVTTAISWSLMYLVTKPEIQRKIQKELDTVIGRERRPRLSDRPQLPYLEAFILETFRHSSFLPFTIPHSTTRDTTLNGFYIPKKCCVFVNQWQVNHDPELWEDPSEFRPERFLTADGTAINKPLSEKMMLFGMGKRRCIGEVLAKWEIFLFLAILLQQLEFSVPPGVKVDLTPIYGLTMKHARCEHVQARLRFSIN

[4] = target: T4, CYP2A6 (Homo sapiens, UniProt P11509); test: Inhibition of CYP2A6 in human liver microsomes assessed as enzyme-mediated metabolite formation at 3 uM using coumarin as substrate preincubated for 20 mins followed by substrate addition measured after 30 mins in presence of NADPH by LC-MS/MS analysis relative to control; set-up: scale not given: the % may be the effect or the level left; conditions: probe coumarin, read-out: Activity
T4 sequence (P11509 whole entry): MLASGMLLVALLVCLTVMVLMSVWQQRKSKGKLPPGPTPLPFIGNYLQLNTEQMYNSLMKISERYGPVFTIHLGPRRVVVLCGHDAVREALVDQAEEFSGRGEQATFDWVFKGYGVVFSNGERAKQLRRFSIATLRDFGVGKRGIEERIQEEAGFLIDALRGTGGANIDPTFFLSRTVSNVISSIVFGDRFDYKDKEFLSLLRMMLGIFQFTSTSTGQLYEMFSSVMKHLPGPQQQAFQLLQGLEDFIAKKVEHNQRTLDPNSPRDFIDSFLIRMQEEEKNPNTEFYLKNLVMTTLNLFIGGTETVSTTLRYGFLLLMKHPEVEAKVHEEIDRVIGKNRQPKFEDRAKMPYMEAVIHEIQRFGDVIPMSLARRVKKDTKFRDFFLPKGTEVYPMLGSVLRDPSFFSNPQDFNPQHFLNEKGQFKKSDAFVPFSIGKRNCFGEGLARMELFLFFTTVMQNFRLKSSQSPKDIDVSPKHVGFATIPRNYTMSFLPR

[5] = target: T2, CYP3A4; test: Inhibition of CYP3A4 in human liver microsomes assessed as enzyme-mediated metabolite formation at 3 uM using testosterone as substrate incubated for 5 mins followed by NADPH addition measured after 30 mins by LC-MS/MS analysis relative to control; set-up: scale not given: the % may be the effect or the level left; conditions: probe testosterone, read-out: Activity
[6] = target: T3, CYP1A2; test: Inhibition of CYP1A2 in human liver microsomes assessed as enzyme-mediated metabolite formation at 0.1 uM using phenacetin as substrate preincubated for 20 mins followed by substrate addition measured after 30 mins in presence of NADPH by LC-MS/MS analysis relative to control; set-up: scale not given: the % may be the effect or the level left; conditions: probe phenacetin, read-out: Activity
[7] = target: T5, CYP2B6 (Homo sapiens, UniProt P20813); test: Inhibition of CYP2B6 in human liver microsomes assessed as enzyme-mediated metabolite formation at 0.3 uM using bupropion as substrate preincubated for 20 mins followed by substrate addition measured after 30 mins in presence of NADPH by LC-MS/MS analysis relative to control; set-up: scale not given: the % may be the effect or the level left; conditions: probe bupropion, read-out: Activity
T5 sequence (P20813 whole entry): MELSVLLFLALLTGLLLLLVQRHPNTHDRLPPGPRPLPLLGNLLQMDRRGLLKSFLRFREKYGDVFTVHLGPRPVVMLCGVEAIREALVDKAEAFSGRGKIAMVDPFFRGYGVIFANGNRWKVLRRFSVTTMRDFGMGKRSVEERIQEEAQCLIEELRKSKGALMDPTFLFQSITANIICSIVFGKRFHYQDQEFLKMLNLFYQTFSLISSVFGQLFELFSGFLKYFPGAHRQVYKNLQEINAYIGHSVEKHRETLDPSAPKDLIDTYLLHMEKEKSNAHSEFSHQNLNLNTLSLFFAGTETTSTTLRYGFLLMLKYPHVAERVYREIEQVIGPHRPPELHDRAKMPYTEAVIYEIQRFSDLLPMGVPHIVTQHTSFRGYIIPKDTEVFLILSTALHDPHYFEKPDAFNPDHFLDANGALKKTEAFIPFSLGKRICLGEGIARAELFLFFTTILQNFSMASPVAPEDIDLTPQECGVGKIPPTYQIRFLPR

[8] = target: Cytochrome P450 2C19 (Homo sapiens, UniProt P33261); test: Inhibition of human CYP2C19 using (S)-mephenytoin as substrate incubated for 5 mins followed by NADPH addition measured after 30 mins by LC-MS/MS analysis
Cytochrome P450 2C19, sequence (P33261 whole entry): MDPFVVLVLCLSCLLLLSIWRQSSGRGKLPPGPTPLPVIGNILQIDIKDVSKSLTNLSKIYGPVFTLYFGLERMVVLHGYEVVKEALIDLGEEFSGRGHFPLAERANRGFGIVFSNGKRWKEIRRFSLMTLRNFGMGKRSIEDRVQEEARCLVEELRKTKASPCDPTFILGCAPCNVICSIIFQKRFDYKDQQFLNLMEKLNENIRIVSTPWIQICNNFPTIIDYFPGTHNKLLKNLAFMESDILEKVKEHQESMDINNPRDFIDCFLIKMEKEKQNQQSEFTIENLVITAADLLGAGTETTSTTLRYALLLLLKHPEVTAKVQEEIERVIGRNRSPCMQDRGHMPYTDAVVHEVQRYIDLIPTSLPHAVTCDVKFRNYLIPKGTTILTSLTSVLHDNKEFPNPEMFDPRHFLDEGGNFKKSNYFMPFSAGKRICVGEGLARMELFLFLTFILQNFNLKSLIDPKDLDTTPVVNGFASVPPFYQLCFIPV

[9] = target: T2, CYP3A4; test: Inhibition of CYP3A4 in human liver microsomes assessed as enzyme-mediated metabolite formation at 30 uM using midazolam as substrate preincubated for 20 mins followed by substrate addition measured after 30 mins in presence of NADPH by LC-MS/MS analysis relative to control; set-up: scale not given: the % may be the effect or the level left; conditions: probe midazolam, read-out: Activity
[10] = target: T3, CYP1A2; test: Inhibition of CYP1A2 in human liver microsomes assessed as enzyme-mediated metabolite formation at 30 uM using phenacetin as substrate preincubated for 20 mins followed by substrate addition measured after 30 mins in presence of NADPH by LC-MS/MS analysis relative to control; set-up: scale not given: the % may be the effect or the level left; conditions: probe phenacetin, read-out: Activity
[11] = target: T1, CYP2C9; test: Inhibition of CYP2C9 in human liver microsomes assessed as enzyme-mediated metabolite formation at 30 uM using diclofenac as substrate incubated for 5 mins followed by NADPH addition measured after 30 mins by LC-MS/MS analysis relative to control; set-up: scale not given: the % may be the effect or the level left; conditions: probe diclofenac, read-out: Activity
[12] = target: T3, CYP1A2; test: Inhibition of CYP1A2 in human liver microsomes assessed as enzyme-mediated metabolite formation at 0.3 uM using phenacetin as substrate preincubated for 20 mins followed by substrate addition measured after 30 mins in presence of NADPH by LC-MS/MS analysis relative to control; set-up: scale not given: the % may be the effect or the level left; conditions: probe phenacetin, read-out: Activity

activity at 0.5 h, 30 µM [1]: 46.9%
activity at 0.5 h, 0.1 µM [2]: 109%
activity at 0.5 h, 3 µM [3]: 72%
activity at 0.5 h, 3 µM [4]: 104%
activity at 0.5 h, 3 µM [5]: 63.3%
activity at 0.5 h, 0.1 µM [6]: 97.2%
activity at 0.5 h, 0.3 µM [7]: 81.3%
IC50 [8]: 5.8 µM
inhibition (INH) ([8]; human, 0.5 h): Dose-dependent effect
activity at 0.5 h, 30 µM [9]: 97.6%
activity at 0.5 h, 30 µM [10]: 42.8%
activity at 0.5 h, 30 µM [11]: 30.9%
activity at 0.5 h, 0.3 µM [12]: 96.4%
Compound: CCCCCCCC(=O)CCc1ccc(O)c(OC)c1
